Measured values: US20240384268A1, “Oligonucleotides” (Hudson Institute of Medical Research, priority 2021, published 2024)

Biological target: T1, human TLR7 (Homo sapiens, UniProt Q9NYK1)
T1 construct: HA; host or cells: 293XL-hTLR7-HA (HEK293)
T1 sequence (Q9NYK1 27-1049): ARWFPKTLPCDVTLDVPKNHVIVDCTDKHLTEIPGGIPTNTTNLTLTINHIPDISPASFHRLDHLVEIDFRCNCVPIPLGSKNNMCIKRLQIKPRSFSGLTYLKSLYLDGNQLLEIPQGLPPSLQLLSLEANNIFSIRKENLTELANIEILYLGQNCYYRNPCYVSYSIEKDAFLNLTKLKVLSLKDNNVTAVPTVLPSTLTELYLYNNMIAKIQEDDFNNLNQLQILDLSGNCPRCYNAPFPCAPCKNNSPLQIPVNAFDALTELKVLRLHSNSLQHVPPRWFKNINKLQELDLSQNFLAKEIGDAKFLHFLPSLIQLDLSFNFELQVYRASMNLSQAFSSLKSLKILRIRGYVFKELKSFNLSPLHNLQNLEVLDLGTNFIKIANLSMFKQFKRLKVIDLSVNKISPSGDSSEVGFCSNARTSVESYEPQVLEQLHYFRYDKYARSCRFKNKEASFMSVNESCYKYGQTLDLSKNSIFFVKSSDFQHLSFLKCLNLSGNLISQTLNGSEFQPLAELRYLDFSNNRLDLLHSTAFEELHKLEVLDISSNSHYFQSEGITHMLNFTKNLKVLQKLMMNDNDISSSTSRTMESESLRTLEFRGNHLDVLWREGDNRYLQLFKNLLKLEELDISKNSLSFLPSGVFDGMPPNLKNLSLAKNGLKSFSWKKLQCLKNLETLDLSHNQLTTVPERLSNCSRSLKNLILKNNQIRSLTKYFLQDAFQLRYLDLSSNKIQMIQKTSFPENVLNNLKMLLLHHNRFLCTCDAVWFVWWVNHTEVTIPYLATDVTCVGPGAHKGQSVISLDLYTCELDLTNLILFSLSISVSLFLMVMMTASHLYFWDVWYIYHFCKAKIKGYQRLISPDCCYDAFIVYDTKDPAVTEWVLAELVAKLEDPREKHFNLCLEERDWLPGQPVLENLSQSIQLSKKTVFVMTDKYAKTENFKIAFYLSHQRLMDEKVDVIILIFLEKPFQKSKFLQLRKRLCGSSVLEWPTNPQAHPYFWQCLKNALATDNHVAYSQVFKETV
Test: HEK-TLR7 NF-κB-luciferase reporter, R848 stimulation
Type: cell-based
Conditions: averaged NF-κB-Luciferase relative to R848 condition; for TLR7 100 nM: MOE-modified ASO at 100 nM; for TLR7 500 nM: MOE-modified ASO at 500 nM

ATGTGATGGCCTCCCATCTC (antisense; 2'-MOE modified, pattern not given here) [HPRT-333 MOE]
TLR7 100 nM: 0.643 | TLR7 500 nM: 0.345

GGTGTCCTTGCACGTGGCTT (antisense; 2'-MOE modified, pattern not given here) [EGFR-1016 MOE]
TLR7 100 nM: 0.358 | TLR7 500 nM: 0.131

GCGACTATACGCGCAATATG (antisense; 2'-MOE modified, pattern not given here) [NC5 2′MOE]
TLR7 100 nM: 0.948 | TLR7 500 nM: 0.294

GCGGAGGTCTTGGCTTCGTG (antisense; 2'-MOE modified, pattern not given here) [MB21D1-526 MOE]
TLR7 100 nM: 0.453 | TLR7 500 nM: 0.154

CTGTGATCTTGACATGCTGC (antisense; 2'-MOE modified, pattern not given here) [EGFR-2790 MOE]
TLR7 100 nM: 0.449 | TLR7 500 nM: 0.206

GAGTCTCTGGAGCTTCCTCT (antisense; 2'-MOE modified, pattern not given here) [CAMSAP1-2456 MOE]
TLR7 100 nM: 0.469 | TLR7 500 nM: 0.170

AGGTCTTGGCTTCGTGGAGC (antisense; 2'-MOE modified, pattern not given here) [MB21D1-522 MOE]
TLR7 100 nM: 0.547 | TLR7 500 nM: 0.150

TCAAAGGACTGAGGAAAGGG (antisense; 2'-MOE modified, pattern not given here) [CAMSAP1-6273 MOE]
TLR7 100 nM: 0.397 | TLR7 500 nM: 0.189

CAATGTGATGGCCTCCCATC (antisense; 2'-MOE modified, pattern not given here) [HPRT-335 MOE]
TLR7 100 nM: 0.451 | TLR7 500 nM: 0.279

GGAGGTCTTGGCTTCGTGGA (antisense; 2'-MOE modified, pattern not given here) [MB21D1-524 MOE]
TLR7 100 nM: 0.434 | TLR7 500 nM: 0.091

GTCTTGGCTTCGTGGAGCAG (antisense; 2'-MOE modified, pattern not given here) [MB21D1-520 MOE]
TLR7 100 nM: 0.372 | TLR7 500 nM: 0.095

CAACACTTCGTGGGGTCCTT (antisense; 2'-MOE modified, pattern not given here) [HPRT-665 MOE]
TLR7 100 nM: 0.487 | TLR7 500 nM: 0.285

GGGAAAGGTTATGCAAGGTC (antisense; 2'-MOE modified, pattern not given here) [CTNN2B-916 MOE]
TLR7 100 nM: 0.599 | TLR7 500 nM: 0.163

AACACTTCGTGGGGTCCTTT (antisense; 2'-MOE modified, pattern not given here) [HPRT-664 MOE]
TLR7 100 nM: 0.406 | TLR7 500 nM: 0.226

GTGTCTTCATCGGCCCTGCC (antisense; 2'-MOE modified, pattern not given here) [CAMSAP1-2113 MOE]
TLR7 100 nM: 0.371 | TLR7 500 nM: 0.132

AGATCTGGCAGCCCATCAAC (antisense; 2'-MOE modified, pattern not given here) [CTNN2B-2516 MOE]
TLR7 100 nM: 0.500 | TLR7 500 nM: 0.201

GGTGGTGGCCACCCATCTCA (antisense; 2'-MOE modified, pattern not given here) [CTNN2B-2479 MOE]
TLR7 100 nM: 0.480 | TLR7 500 nM: 0.192

CCAACACTTCGTGGGGTCCT (antisense; 2'-MOE modified, pattern not given here) [HPRT-666 MOE]
TLR7 100 nM: 0.856 | TLR7 500 nM: 0.334

GGAGATTTCAGAGCAGCTTC (antisense; 2'-MOE modified, pattern not given here) [EGFR-4885 MOE]
TLR7 100 nM: 0.330 | TLR7 500 nM: 0.088

GTCCACATCCTGTGGCTCGT (antisense; 2'-MOE modified, pattern not given here) [CAMSAP1-2906 MOE]
TLR7 100 nM: 0.299 | TLR7 500 nM: 0.119

GTCCTTGCACGTGGCTTCGT (antisense; 2'-MOE modified, pattern not given here) [EGFR-1013 MOE]
TLR7 100 nM: 0.216 | TLR7 500 nM: 0.088

GCGTGTCTGGAAGCTTCCTT (antisense; 2'-MOE modified, pattern not given here) [CTNN2B-809 MOE]
TLR7 100 nM: 0.415 | TLR7 500 nM: 0.134
